Laboratory results as given in US20220251105A1, “METHODS OF TREATING A MK2-MEDIATED DISORDER” (Celgene CAR LLC, priority 2019, published 2022).
Read-outs that look alike come from different tables or passages of the source.

How the values were obtained:
[1] = system: osteoclast differentiation; assay: osteoclast differentiation in vitro; format: cell-based
Mouse/CD-1 = assay: exploratory single dose and 14-day repeat-dose toxicity study in mice; format: in vivo
Protocol: (§1) A single oral dose study with a 14-day repeat-dose phase was conducted in male and female mice. 250 mg/kg was selected as the highest dose for the repeat dose portion of the study.

[2] = toxicokinetics, exploratory 14-day mouse study; format: in vivo; details: both sexes, CD-1, mouse, plasma, po, mice, read-out: Mean Day 14 AUC0-last
Protocol: as §1

[3] = 28-day repeat-dose oral toxicity study in mice; details: both sexes, Crl:CD1 (ICR), mouse, in vivo; mice, 28 days
Text: (§2) Additionally, toxicokinetic animals received the vehicle or compound in the same manner and dose levels as the main study groups.

Crl:CD1 (ICR) mice = assay: 28-day repeat-dose oral toxicity study in mice; details: mouse, in vivo
Text: as §2

[4] = pivotal 28-day repeat-dose toxicity study in monkeys; format: in vivo, cynomolgus monkey; details: both sexes, cynomolgus monkey, in vivo; monkeys, 28 days, highest dose used; read-out: NOAEL with respect to dose
[5] = system: cynomolgus monkeys (Macaca fascicularis); assay: as above; format: in vivo, cynomolgus monkey
[6] = toxicokinetics, 28-day monkey study; format: in vivo, cynomolgus monkey; details: for Cmax / AUC: po; for dose proportionality of systemic exposure (AUCLST): monkeys
[7] = physical form (amorphous/crystalline) in dose formulation vehicle; format: physicochemical
Text: Additionally, the vehicle used in the pivotal studies was changed from 0.5% methyl cellulose (400 cps) and 0.1% Tween 80 to distilled water.

[8] = 28- and 91-day toxicology studies in cynomolgus monkeys; details: cynomolgus monkey, in vivo, oral
[9] = cynomolgus monkey, in vivo, 150 mg/kg/day

For `CCOCc1cnc(Cl)nc1Oc1ccc2c(ccc3sc4c(c32)NC[C@@H](C)NC4=O)n1` [Compound 1], the osteoclast differentiation [1] was “inhibit osteoclast differentiation in vitro”, the “Findings, 14-day phase” value (Mouse/CD-1; mice, 15, 75, 250 mg/kg/day) was “no compound related findings were identified” and the “Findings, single dose phase” value (Mouse/CD-1; mice, at 750 mg/kg) was “Cold to touch and shaking”. It also gave an AUC(0-t) ([2]; 15 mg/kg/day) of 4820 ng·h/mL, an AUC(0-t) ([2]; 75 mg/kg/day) of 16600 ng·h/mL and an AUC(0-t) ([2]; 250 mg/kg/day) of 35100 ng·h/mL. The NOAEL at 28 days [3] was 100 mg/kg/day, the compound-related findings (Crl:CD1 (ICR) mice; 15 mg/kg/day) was “no compound-related findings” and the “microscopic finding, skeletal muscle” value (Crl:CD1 (ICR) mice; 100 mg/kg/day) was “Minimal to mild myofiber degeneration in the skeletal muscle”. For the same compound, the “adverse effect, heart” value (Crl:CD1 (ICR) mice; 750 mg/kg/day) was “Minimal to mild myofiber degeneration in the heart”, the “change in mean absolute reticulocyte count” value (Crl:CD1 (ICR) mice; 750 mg/kg/day) was −29% and the “change in mean platelet count” value (Crl:CD1 (ICR) mice; 750 mg/kg/day) was “+96%”. For the same compound, the “leukocyte counts (non-adverse)” value (Crl:CD1 (ICR) mice; 750 mg/kg/day) was “Minimal to mild decreases in lymphocyte counts and inconsistent decreases in most other leukocyte subtypes”, the “microscopic finding, duodenum” value (Crl:CD1 (ICR) mice; 750 mg/kg/day) was “Minimal to mild erosion/ulceration of the proximal duodenum” and the “microscopic finding, liver” value (Crl:CD1 (ICR) mice; 750 mg/kg/day) was “Centrilobular hepatocellular hypertrophy (typically of minimal severity)”. The “microscopic finding, thymus” value (Crl:CD1 (ICR) mice; 750 mg/kg/day) was “Minimal to mild thymic cortical lymphoid depletion”, the “organ weights (non-adverse)” value (Crl:CD1 (ICR) mice; 750 mg/kg/day) was “Increased liver and heart weights” and the NOAEL at 28 days [4] was 375 mg/kg/day. For the same compound, the “clinical observation, stool (non-adverse)” value ([5]; cynomolgus monkey, in vivo, 50 mg/kg/day) was “discolored and/or watery stool”, the “clinical observation, urine (non-adverse)” value [5, 9] was “dose-dependent incidents of discolored urine” and the “microscopic finding, skeletal muscle (non-adverse)” value [5, 9] was “Minimal myofiber degeneration in skeletal muscle”. The “mortality, body weight, ophthalmic examinations, electrocardiograms, clinical pathology, macroscopic observations, organ weights” value ([5]; monkeys, 50, 150, 375 mg/kg/day, 28 days) was “no compound-related effects”, the AUC(0-t) ([6]; cynomolgus monkey, plasma, oral, female monkeys, read-out: AUC0-24, steady state exposure at the NOAEL) was roughly 7840 ng·h/mL and the Cmax ([6]; cynomolgus monkey, plasma, monkey, Study Day 1, male, 375 mg/kg/day) was 1960 ng/mL. The Cmax ([6]; cynomolgus, cynomolgus monkey, plasma, monkey, Study Day 21, female, 375 mg/kg/day) was 810 ng/mL, the Cmax ([6]; cynomolgus, cynomolgus monkey, plasma, monkey, Study Day 21, male, 375 mg/kg/day) was 2340 ng/mL and the Cmax ([6]; female, cynomolgus monkey, plasma, 15 mg/kg/day, monkey, Study Day 1, female, 15 mg/kg/day (so in the source)) was 862 ng/mL. The AUC ([6]; female, cynomolgus monkey, plasma, 15 mg/kg/day, monkey, Study Day 1, female, 15 mg/kg/day (so in the source), read-out: AUCLST) was 3090 ng·h/mL, the Cmax ([6]; female, cynomolgus monkey, plasma, 150 mg/kg/day, monkey, Study Day 1, female, 150 mg/kg/day) was 1390 ng/mL and the AUC ([6]; female, cynomolgus monkey, plasma, 150 mg/kg/day, monkey, Study Day 1, female, 150 mg/kg/day, read-out: AUCLST) was 6330 ng·h/mL. The AUC ([6]; female, cynomolgus monkey, plasma, 150 mg/kg/day, monkey, Study Day 21, female, 150 mg/kg/day, read-out: AUCLST) was 7840 ng·h/mL, the AUC ([6]; female, cynomolgus monkey, plasma, 375 mg/kg/day, monkey, Study Day 1, female, 375 mg/kg/day, read-out: AUCLST) was 16700 ng·h/mL and the AUC ([6]; female, cynomolgus monkey, plasma, 375 mg/kg/day, monkey, Study Day 21, female, 375 mg/kg/day, read-out: AUCLST) was 4220 ng·h/mL. For the same compound, the Cmax ([6]; female, cynomolgus, cynomolgus monkey, plasma, 15 mg/kg/day, monkey, Study Day 21, female, 15 mg/kg/day (so in the source)) was 818 ng/mL, the AUC ([6]; female, cynomolgus, cynomolgus monkey, plasma, 15 mg/kg/day, monkey, Study Day 21, female, 15 mg/kg/day (so in the source), read-out: AUCLST) was 2460 ng·h/mL and the Cmax ([6]; female, cynomolgus, cynomolgus monkey, plasma, 150 mg/kg/day, monkey, Study Day 21, female, 150 mg/kg/day) was 1620 ng/mL. The Cmax ([6]; male, cynomolgus monkey, plasma, 15 mg/kg/day, monkey, Study Day 1, male, 15 mg/kg/day (so in the source)) was 623 ng/mL, the AUC ([6]; male, cynomolgus monkey, plasma, 15 mg/kg/day, monkey, Study Day 1, male, 15 mg/kg/day (so in the source), read-out: AUCLST) was 1750 ng·h/mL and the Cmax ([6]; male, cynomolgus monkey, plasma, 15 mg/kg/day, monkey, Study Day 21, male, 15 mg/kg/day (so in the source)) was 465 ng/mL. For the same compound, the Cmax ([6]; male, cynomolgus monkey, plasma, 150 mg/kg/day, monkey, Study Day 1, male, 150 mg/kg/day) was 1240 ng/mL, the AUC ([6]; male, cynomolgus monkey, plasma, 150 mg/kg/day, monkey, Study Day 1, male, 150 mg/kg/day, read-out: AUCLST) was 5840 ng·h/mL and the Cmax ([6]; male, cynomolgus monkey, plasma, 150 mg/kg/day, monkey, Study Day 21, male, 150 mg/kg/day) was 674 ng/mL. It also gave an AUC ([6]; male, cynomolgus monkey, plasma, 375 mg/kg/day, male monkeys (375 mg/kg/day), steady-state, read-out: NOAEL with respect to AUCLST) of 8790 ng·h/mL, an AUC ([6]; male, cynomolgus monkey, plasma, 375 mg/kg/day, monkey, Study Day 1, male, 375 mg/kg/day, read-out: AUCLST) of 14100 ng·h/mL and an AUC ([6]; male, cynomolgus, cynomolgus monkey, plasma, 15 mg/kg/day, monkey, Study Day 21, male, 15 mg/kg/day (so in the source), read-out: AUCLST) of 1280 ng·h/mL. For the same compound, the AUC ([6]; male, cynomolgus, cynomolgus monkey, plasma, 150 mg/kg/day, monkey, Study Day 21, male, 150 mg/kg/day, read-out: AUCLST) was 3950 ng·h/mL, the AUC ([6]; male, cynomolgus, cynomolgus monkey, plasma, 375 mg/kg/day, monkey, Study Day 21, male, 375 mg/kg/day, read-out: AUCLST) was 8790 ng·h/mL and the “dose proportionality of systemic exposure (AUCLST)” value ([6]; Day 1, 50 to 375 mg/kg/day) was “approximately dose-proportional manner”. The “dose proportionality of systemic exposure (AUCLST)” value ([6]; Day 20, 50 to 375 mg/kg/day) was “less than dose-proportional manner”, the “physical form after dose formulation preparation” value ([7]; Tween 80 present in the vehicle) was “changed from an amorphous to a crystalline form, beginning within the first hour” and the “time remaining in the amorphous form” value ([7]; prepared in distilled water) was “at least 24 hours”. The NOAEL [8] was 375 mg/kg/day.
